Measured values: patent US20240287138A1, “CYCLIC PEPTIDES FOR INHIBITING TNF RECEPTOR 1 ACTIVITY” (Merck Sharp & Dohme LLC, priority 2023, published 2024)
Numbered stars: 1 amine (or outer) side, 2 acyl side, 3 side chain; on linkers, the order of the positions; unused ones are H or OH. Bridge positions count the residues as written; N and C are the ends. Square brackets hold non-standard residues; d marks the D form. Peptide text beside a SMILES is read from it. Trp(βS-Me,7-OMe) = COc1cccc2c([C@H](C)[C@H](N)C(=O)O)c[nH]c12; Ala(1-bicyclo(1.1.1)pentyl) = N[C@@H](CC12CC(C1)C2)C(=O)O; Phe(3-CH2NH2) = O=C([C@H](Cc1cccc(CN[*:3])c1)N[*:1])[*:2]; Trp(4-Cl) = N[C@@H](Cc1c[nH]c2cccc(Cl)c12)C(=O)O; Trp(7-CN) = N#Cc1cccc2c(C[C@H](N)C(=O)O)c[nH]c12; Trp(7-Cl) = N[C@@H](Cc1c[nH]c2c(Cl)cccc12)C(=O)O; Phe(3-CONH2) = NC(=O)c1cccc(C[C@H](N)C(=O)O)c1; Phe(4-CONH2) = NC(=O)c1ccc(C[C@H](N)C(=O)O)cc1; Phe(4-COOH) = N[C@@H](Cc1ccc(C(=O)O)cc1)C(=O)O; X2 = C[C@@H]1CC[C@@H](C(=O)[*:2])N([*:1])C1; Pip(5R-OH) = O=C(O)[C@@H]1CC[C@@H](O)CN1; X13 = O=C([C@H]1CC[C@@H](N[*:1])C1)[*:2]; X1 = O=C([C@@H]1CC[C@H](N[*:1])C1)[*:2]; Gly(Nα-CH2CH2CONH2) = NC(=O)CCNCC(=O)O; 1Nal = N[C@@H](Cc1cccc2ccccc12)C(=O)O; 2Nal = N[C@@H](Cc1ccc2ccccc2c1)C(=O)O; Pip(4-aza) = O=C(O)[C@@H]1CNCCN1; 4Pal = N[C@@H](Cc1ccncc1)C(=O)O; NMeE = CN[C@@H](CCC(=O)O)C(=O)O; NMeN = CN[C@@H](CC(N)=O)C(=O)O; Ahp(2) = CCCCC[C@H](N)C(=O)O; αMeS = C[C@](N)(CO)C(=O)O; NMeA = CN[C@@H](C)C(=O)O; Nle = CCCC[C@H](N)C(=O)O; Sar = CNCC(=O)O

Key:
[1] = biological target: T1, human soluble TNFR1 (sTNFR1) (Homo sapiens, UniProt P19438); test: Human sTNFR1-peptide displacement assay (LanthaScreen Eu TR-FRET binding assay)
T1 construct: made in house; host or cells: Sf21 (baculovirus)
T1 sequence (P19438 with tags, fused parts or gaps): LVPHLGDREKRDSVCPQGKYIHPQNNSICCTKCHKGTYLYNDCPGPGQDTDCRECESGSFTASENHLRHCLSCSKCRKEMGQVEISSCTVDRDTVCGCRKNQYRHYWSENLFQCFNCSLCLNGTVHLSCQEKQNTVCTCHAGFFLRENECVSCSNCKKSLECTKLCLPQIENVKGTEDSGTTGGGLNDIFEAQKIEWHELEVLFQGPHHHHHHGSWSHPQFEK
Summary of the method: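 Readout is the 665/615 nm TR-FRET ratio (Eu anti-His donor, streptavidin-Alexa647 acceptor), normalized to DMSO and saturating displacer, fit by Morrison-based five-parameter logistic for Kd^app. His-tagged sTNFR1 (1-211) prebound to 100 nM biotinylated peptide SEQ ID NO.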

[2] = biological target: T2, human TNFR1 extracellular domain (ECD) protein (Homo sapiens, UniProt P19438); test: SPR binding affinity to captured human TNFR1 ECD
T2 construct: HRV 3C protease cleavage site (C); 6His (C, cleaved yes); made in house; host or cells: Sf21 insect cells (baculovirus), secreted
T2 sequence (P19438 30-211): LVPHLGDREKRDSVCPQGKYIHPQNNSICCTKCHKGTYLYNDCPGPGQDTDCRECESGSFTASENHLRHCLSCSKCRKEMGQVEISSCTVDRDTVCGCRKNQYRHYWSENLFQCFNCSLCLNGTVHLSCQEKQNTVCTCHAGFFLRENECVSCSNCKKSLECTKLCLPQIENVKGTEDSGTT
Summary of the method: (§1)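 Read-out: kon, koff and derived affinity from SPR response units. Human TNFR1 and TNFR2 ECD, Avi-tag biotinylated with BirA, captured on a streptavidin surface; peptides injected under laminar flow in HEPES-saline with EDTA, P20 and 2% DMSO.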

human TNFR2 ECD protein = biological target: T3, human TNFR2 ECD protein (Homo sapiens, UniProt P20333); test: SPR off-target binding (selectivity) to human TNFR2 ECD
T3 construct: HRV 3C protease cleavage site (C); 6His (C, cleaved yes); made in house; host or cells: Sf21 insect cells (baculovirus), secreted
T3 sequence (P20333 23-257): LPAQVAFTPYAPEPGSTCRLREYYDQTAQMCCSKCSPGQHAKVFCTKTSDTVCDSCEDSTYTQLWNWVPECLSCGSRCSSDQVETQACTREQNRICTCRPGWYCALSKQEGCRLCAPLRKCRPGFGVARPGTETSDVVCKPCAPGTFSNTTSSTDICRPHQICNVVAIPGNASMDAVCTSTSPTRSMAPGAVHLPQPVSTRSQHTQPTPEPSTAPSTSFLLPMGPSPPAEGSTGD
Summary of the method: as §1

SMILES	IC50 [1] [nM]	Kd [1] [nM]	Kd [2] [nM]	Kd (human TNFR2 ECD protein) [nM]
CCCC[C@@H]1NC(=O)CSC[C@@H](C(N)=O)NC(=O)[C@H]([C@@H](C)c2c[nH]c3c(OC)cccc23)NC(=O)CN(C)C(=O)[C@H](Cc2ccc(O)cc2)NC(=O)[C@H](Cc2ccc(C(=O)O)cc2)NC(=O)[C@](C)(CO)NC(=O)[C@H](Cc2c[nH]c3c(Cl)cccc23)NC(=O)[C@H](Cc2ccncc2)NC(=O)[C@H](CC(N)=O)NC(=O)[C@H](CCC(=O)O)N(C)C(=O)[C@H](Cc2c[nH]c3ccccc23)NC(=O)[C@@H]2CC[C@@H](C)CN2C(=O)[C@H](Cc2ccncc2)NC1=O [SEQ ID NO. 272] ({CH2CO}-[Nle][4Pal][X2]W[NMeE]N[4Pal][Trp(7-Cl)][αMeS][Phe(4-COOH)]Y[Sar][Trp(βS-Me,7-OMe)]C-NH2; thioether N-14)	0.3	0.21	0.1	> 1000
CN1CC(=O)N[C@@H](Cc2c[nH]c3cccc(Cl)c23)C(=O)N[C@H](C(N)=O)CSCC(=O)N[C@@H](CC23CC(C2)C3)C(=O)N[C@@H](Cc2cccc(CN)c2)C(=O)N[C@@H](CO)C(=O)N[C@@H](Cc2c[nH]c3c(Cl)cccc23)C(=O)N2CCC[C@@H]2C(=O)N(C)[C@@H](CC(N)=O)C(=O)N[C@@H](Cc2ccc(C(=O)O)cc2)C(=O)N[C@@H](Cc2c[nH]c3c(Cl)cccc23)C(=O)N[C@@](C)(CO)C(=O)N[C@@H](Cc2ccc(C(=O)O)cc2)C(=O)N[C@@H](Cc2cccc(CN)c2)C1=O [SEQ ID NO. 222] ({CH2CO}-[Ala(1-bicyclo(1.1.1)pentyl)][Phe(3-CH2NH2)]S[Trp(7-Cl)][dP][NMeN][Phe(4-COOH)][Trp(7-Cl)][αMeS][Phe(4-COOH)][Phe(3-CH2NH2)][Sar][Trp(4-Cl)]C-NH2; thioether N-14)	1.73		0.18	> 1000
C[C@H]1C(=O)N[C@@H](CC(N)=O)C(=O)N[C@@H](Cc2ccncc2)C(=O)N[C@@H](Cc2ccc3ccccc3c2)C(=O)N[C@@](C)(CO)C(=O)N[C@@H](Cc2ccc(C(=O)O)cc2)C(=O)N[C@@H](Cc2ccc(O)cc2)C(=O)N(C)CC(=O)N[C@@H](Cc2c[nH]c3ccccc23)C(=O)N[C@H](C(N)=O)CSCC(=O)N[C@@H](CCCCN)C(=O)N[C@@H](Cc2ccncc2)C(=O)N[C@@H](CO)C(=O)N[C@@H](Cc2cccc3ccccc23)C(=O)N1C [SEQ ID NO. 227] ({CH2CO}-K[4Pal]S[1Nal][NMeA]N[4Pal][2Nal][αMeS][Phe(4-COOH)]Y[Sar]WC-NH2; thioether N-14)	4.02		2.3	> 1000
CCCCC[C@@H]1NC(=O)[C@@H]2CC[C@@H](C2)NC(=O)[C@H]([C@@H](C)c2c[nH]c3c(OC)cccc23)NC(=O)CN(C)C(=O)[C@H](Cc2cccc(C(N)=O)c2)NC(=O)[C@H](Cc2ccc(C(N)=O)cc2)NC(=O)[C@](C)(CO)NC(=O)[C@H](Cc2c[nH]c3c(C#N)cccc23)NC(=O)[C@H](Cc2ccc(C(=O)O)cc2)NC(=O)[C@H](CC(N)=O)NC(=O)CN(CCC(N)=O)C(=O)[C@H](Cc2c[nH]c3ccccc23)NC(=O)[C@@H]2CNCCN2C(=O)[C@H](Cc2ccncc2)NC1=O [SEQ ID NO. 10] (cyclo([4Pal][Pip(4-aza)]W[Gly(Nα-CH2CH2CONH2)]N[Phe(4-COOH)][Trp(7-CN)][αMeS][Phe(4-CONH2)][Phe(3-CONH2)][Sar][Trp(βS-Me,7-OMe)][X1][Ahp(2)]))		0.1	0.08	> 1000
CCCC[C@@H]1NC(=O)[C@H]2CC[C@H](C2)NC(=O)[C@H]([C@@H](C)c2c[nH]c3c(OC)cccc23)NC(=O)CN(C)C(=O)[C@H](Cc2ccc(O)cc2)NC(=O)[C@H](Cc2ccc(C(N)=O)cc2)NC(=O)[C@](C)(CO)NC(=O)[C@H](Cc2c[nH]c3c(Cl)cccc23)NC(=O)[C@H](Cc2ccc(C(=O)O)cc2)NC(=O)[C@H](CC(N)=O)NC(=O)[C@H](CCC(=O)O)N(C)C(=O)[C@H](Cc2c[nH]c3ccccc23)NC(=O)[C@@H]2CC[C@@H](O)CN2C(=O)[C@H](Cc2ccncc2)NC1=O [SEQ ID NO. 267] (cyclo([4Pal][Pip(5R-OH)]W[NMeE]N[Phe(4-COOH)][Trp(7-Cl)][αMeS][Phe(4-CONH2)]Y[Sar][Trp(βS-Me,7-OMe)][X13][Nle]))		0.29	0.14	> 1000
